Source: patent US6060485A, “Arylacetic amide derivative or salt thereof, and pharmaceutical comprising it” (SSP Co., Ltd., priority 1997, dated 2000)
Where a name gives a salt, the structure may show the parent alone. Read-outs that look alike come from different tables or passages of the source.

Columns and labels:
[1] = tested on: carbachol-induced hypersialosis; assay: Action against carbachol-induced hypersialosis (salivation, oral); assay type: in vivo, SD male rats; settings: for ED50: Rattus norvegicus, read-out: Salivation inhibitory action ID50; for Selectivity: bladder over salivation, propiverine hydrochloride = 1.0; for Salivation inhibitory action / Bladder contraction inhibitory action: ratio of ID50 values
Protocol: Action against carbachol-induced hypersialosis Testing method
A test compound was orally administered to each of SD male rats weighing 100 to 150 g. Thirty minutes later, 0.1 mg/kg of carbachol was intraperitoneally administered. Immediately after the administration of carbachol, the rat was fixed by hands under non-anesthesia and under this condition, the saliva was wiped off with a cotton ball for 10 minutes. The weight of the saliva so obtained was measured.

[2] = tested on: acetylcholine-induced bladder contraction; assay: Action against acetylcholine-induced bladder contraction (intraduodenal); assay type: in vivo, SD male rats; settings: Rattus norvegicus, 2 h, read-out: Bladder contraction inhibitory action ID50
Protocol: Action against acetylcholine-induced bladder contraction Testing method
SD male rats weighing 230 to 390 g were each fixed on its back under intraperitoneal anesthesia with 500 mg/kg of urethane and 50 mg/kg of α-chloralose. Then, its bladder was exposed by midline abdominal incision. Into the top part of the bladder, a polyethylene tube filled with physiological saline was inserted and intracystic pressure was measured. Into the femoral vein, a venous cannula for administration of a drug was inserted, through which 10 μg/kg of acetylcholine were administered to induce bladder contraction. Then, acetylcholine was administered at intervals of 10 minutes. After the bladder contraction by acetylcholine became stable, the stomach was subjected to midline incision and the test compound was intraduodenally administered using an injection needle.
The bladder contraction was measured as a difference of intracystic pressure before and after the administration of acetylcholine.

[3] = SD male rats, oral, 30 minutes before carbachol 0.1 mg/kg i.p., saliva weight over 10 minutes
[4] = SD male rats, intraduodenal, acetylcholine 10 μg/kg i.v., intracystic pressure, observed 120 minutes

SMILES	ED50 [1, 3]	Selectivity [1]	Salivation inhibitory action / Bladder contraction inhibitory action [1]	ED50 [2, 4]	ED50 ([1]; po)	ED50 [2]
CCCCOC(C(=O)NC1CCN(Cc2ccccc2)CC1)(c1ccccc1)C(C)C (centres unmarked) [Compound No. 4, N-(1-benzyl-4-piperidinyl)-2-butoxy-3-methyl-2-phenylbutanamide]	56.6 mg/kg	6.2	5.8	9.8 mg/kg		
CCN(CC)CC#CCOC(=O)C(O)(c1ccccc1)C1CCCCC1 (centres unmarked) [Oxybutynin hydrochloride, reference compound]		1.1	1.0		3.5 mg/kg	3.4 mg/kg
CCCOC(C(=O)OC1CCN(C)CC1)(c1ccccc1)c1ccccc1 [Propiverine hydrochloride, reference compound]	9.2 mg/kg	1.0	0.9	9.9 mg/kg		
CCCOC(C(=O)NC1CCN(Cc2ccccc2)CC1)(c1ccccc1)C(C)C (centres unmarked) [compound 3]	33.9 mg/kg	4.0	3.6	9.4 mg/kg		
CCCOC(C(=O)NC1CCN(Cc2ccccc2)CC1)(c1ccccc1)C1CC1 (centres unmarked) [compound 12]	22.5 mg/kg	2.4	2.3	10 mg/kg		
